Laboratory results published in PubChem BioAssay (NCI).
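Step 1: Grow cells in 96-well plates. Step 2: Expose to compound for 48 hours at 5 concentrations. Step 3: Interpolate endpoints linearly; if unreached, use highest concentration. GI50 = concentration required for 50% inhibition of growth. TGI denotes the concentration required for complete inhibition of growth.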

Tests used:
Experiment in all cases: NCI tumour cell line growth inhibition, 48 h
SF-539 CNS = tested on: SF-539 CNS
SN12C renal = tested on: SN12C renal
HOP-62 NSCLC = tested on: HOP-62 NSCLC
SK-MEL-2 melanoma = tested on: SK-MEL-2 melanoma
OVCAR-8 ovarian = tested on: OVCAR-8 ovarian
HL-60(TB) leukemia = tested on: HL-60(TB) leukemia
HOP-92 NSCLC = tested on: HOP-92 NSCLC
SF-295 CNS = tested on: SF-295 CNS
SNB-75 CNS = tested on: SNB-75 CNS
MDA-MB-435 = tested on: MDA-MB-435

SMILES	GI50 (SF-539 CNS)	TGI (SF-539 CNS)	GI50 (SN12C renal)	TGI (SN12C renal)	GI50 (HOP-62 NSCLC)	TGI (HOP-62 NSCLC)	GI50 (SK-MEL-2 melanoma)	TGI (SK-MEL-2 melanoma)	GI50 (OVCAR-8 ovarian)	TGI (OVCAR-8 ovarian)	GI50 (HL-60(TB) leukemia)	TGI (HL-60(TB) leukemia)	GI50 (HOP-92 NSCLC)	TGI (HOP-92 NSCLC)	GI50 (SF-295 CNS)	TGI (SF-295 CNS)	GI50 (SNB-75 CNS)	TGI (SNB-75 CNS)	GI50 (MDA-MB-435)	TGI (MDA-MB-435)
O=S(=O)(NCCCNc1cc(-c2cn(-c3ccccc3)nc2-c2cccc(O)c2)ccn1)c1ccc(Cl)cc1	1.77 µM	3.79 µM	2.23 µM	6.09 µM	1.52 µM	3.25 µM	1.91 µM	3.51 µM	2.11 µM	6.06 µM	2.09 µM	5.61 µM	1.52 µM	4.74 µM	1.42 µM	3.29 µM	1.45 µM	7.99 µM	1.64 µM	3.2 µM
COc1cc(C2C(C#N)=C(N)Oc3cc(O)ccc32)cc(OC)c1OC (stereo not drawn)	0.333 µM		0.827 µM	> 100 µM	0.746 µM	> 100 µM	0.496 µM	> 100 µM	0.856 µM	> 100 µM	0.311 µM	> 100 µM	0.301 µM	97.5 µM	0.374 µM	> 100 µM	0.271 µM	> 100 µM	0.147 µM	0.643 µM
CC([O-])C(=O)[O-].NCC1CCC1CN.[Pt+4] (stereo not drawn)	> 10 µM	> 10 µM	> 10 µM	> 10 µM	> 10 µM	> 10 µM	> 10 µM	> 10 µM	> 10 µM	> 10 µM	> 10 µM	> 10 µM	> 10 µM	> 10 µM	> 10 µM	> 10 µM	> 10 µM	> 10 µM	> 10 µM	> 10 µM
COc1ccc(-c2coc3cc(OC)cc(O)c3c2=O)cc1		> 100 µM		> 100 µM		> 100 µM				> 100 µM		> 100 µM		94.6 µM		> 100 µM		> 100 µM		> 100 µM
CC[C@@]1(O)C(=O)OCc2c1cc1n(c2=O)Cc2c-1nc1ccccc1c2/C=N/OC(C)(C)C	< 0.01 µM	< 0.0216 µM	< 0.01 µM	4.75 µM	< 0.01 µM	0.53 µM	0.0447 µM	1.22 µM	< 0.0118 µM	> 42.1 µM	< 0.01 µM	< 0.0125 µM	< 0.0149 µM	3.4 µM	< 0.01 µM	0.599 µM	< 0.0109 µM	0.978 µM	0.0301 µM	3.92 µM
CC/C=C\C/C=C\C[C@H]1C/C=C2/C(=O)C=C[C@H]2C/C=C\CCC(=O)O1	4.44 µM	> 14.3 µM	3.46 µM	8.77 µM	3.94 µM	10.6 µM	3.45 µM	9.94 µM	4.73 µM	> 14.3 µM	3.55 µM	12.2 µM	2.72 µM	8.01 µM	3.01 µM	9.29 µM	10.1 µM	> 14.3 µM	3.03 µM	8.91 µM
